Consider 25 compounds from patent publication US20260234123A1, “Inhibitors of NLRP3” (Mwyngil Therapeutics, Inc., priority 2023, published 2026).

SMILES strings stand for the structures.

The subject of the first experiment is IL1b release THP-1. In words: IL1b release THP-1 (ELISA). It counts as cell-based. To be noted: Homo sapiens, THP-1, read-out: THP 1 IL 1b, EC50, μM. As for the experimental part:
Example A. Primary Assays Used to Determine IL1b Release THP-1 (ELISA)
• Microbiological safety cabinet, classII (NuAire, USA) • CO2 incubator (VWR Science, USA) • Countess Automated Cell Counter (Invitrogen, USA, cat. number C10227) • Centrifuge CM 6M (Elmi, Latvia) • Serological pipettes 2, 5, 10, 25, 50, 100 ml sterile (Santa Cruz Biotechnology, Inc., USA, sc-200277, sc-200279, sc-200281, sc-200283, Sc-213234, sc-516777) • Single and multichannel pipettes 0.2-10 μL, 50-1200 μL (Eppendorf AG-Hamburg, Germany) • 50 mL PP sterile tubes (Greiner, cat. Number 210261).
• RPMI-1640 (PanEco, C330) • Sodium pyruvate (Paneco, cat. number Φ023) • Non-Essential amino acids 50× (Paneco, Φ116) • Essential amino acids 50× (Paneco, Φ115/50) • FBS (Hyclone Laboratories Inc, USA, SV30160.03) • Antibiotic-antimycotic (Gibco, USA, 15240-062) • 2-mercaptoethanol 1000×55 mM (Gibco, USA, 21985-023) • LPS-EB ultrapure (invivogen, cat. number tlrl-3pelps) • Nigericin (Sigma, cat. number N7143) • ELISA kit, IL-1beta (Cat #A-8766, Interleukin-1 beta-EIA-BEST, Vector Best). LPS Preparation (5 mg/ml): • 1. Add 1 ml of endotoxin-free water according manufacturer's protocol • 2. Vortex until complete solubilization • 3. Aliquote and store at […] for long term storage.
• 1. Add methanol to 10 mg of powder to produce the 10 mM Nigericin solution • 2. Vortex until complete solubilization • 3. Store at 4° C.
THP-1 cells were propagated in RPMI-1640 (10% FBS, Antibiotic-antimycotic 1×, non-Essential amino acids 1×, Essential amino acids 1×, Sodium pyruvate 2×, 2-mercaptoethanol 0.05 mM) at 37° C. and at 5% CO2 in an incubator.
• 1. THP-1 cells were spined at 100 g for 5 min in 50 ml tube. • 2. THP-1 cells were resuspended in warm culture medium (w/o FBS, w/o Antibiotic-antimycotic, non-Essential amino acids 1×, Essential amino acids 1×, Sodium pyruvate 2×) to the concentration 1,3×10^6 cells. • 3. THP-1 cells were primed in tube with 1 μg/ml of LPS for 4 h at 37° C. and at 5% CO2 in an incubator. • 4. THP-1 cells were stimulated with 10 μM of Nigericin (Cat #N7143-10 MG, Sigma Aldrich) for 2 h at 37° C. and at 5% CO2 in an incubator. • 5. After the full activation, the supernatant was collected and the levels of IL-1β were assessed via ELISA according manufacturer instructions (Cat #A-8766, Vector Best).
The average EC50 values are shown in Table A, wherein “A” corresponds to EC50: A≤0.5 μM, “B” corresponds to 0.5 μM<EC50≤1.0 μM, “C” 1.0 μM<EC50≤5.0 μM, “D” corresponds to 5.0 μM<EC50≤30 μM and “E” corresponds to EC50>30 μM.
In general, EC50 refers to the midpoint of the concentration-response curve. For the compound `CCC(C)N1CCC[C@@H](Nc2cc(C)c(-c3ccc(C(F)(F)F)cc3NS(C)(=O)=O)nn2)C1` (stereo partly drawn) [Compound 35, N-(2-(6-(((3R)-1-(sec-Butyl)piperidin-3-yl)amino)-4-methylpyridazin-3-yl)-5-(trifluoromethyl)phenyl) methanesulfonamide], the EC50 is less than 0.5 µM.

Staying with this experiment, now noted: Homo sapiens; average EC50; THP-1 cells primed with 1 μg/ml LPS 4 h, stimulated with 10 μM Nigericin 2 h; IL-1β in supernatant by ELISA; read-out: THP 1 IL 1b, EC50.
As for `CCN1CCC[C@@H](Nc2nnc(-c3ccc(C(F)(F)F)cc3NS(C)(=O)=O)cc2C2CC2)C1` [Compound 28, (R)—N-(2-(5-Cyclopropyl-6-((1-ethylpiperidin-3-yl)amino)pyridazin-3-yl)-5-(trifluoromethyl)phenyl) methane-sulfonamide], the EC50 is less than 0.5 µM.

`CCN1CCC[C@@H](Nc2nnc(-c3ccc(C(F)(F)F)cc3NS(=O)(=O)C(C)C)cc2C)C1` [Compound 72]: the EC50 lay within 5 to 30 µM.

Regarding `CCN1C[C@H](F)C[C@@H](Nc2nnc(-c3ccc(C(F)(F)F)cc3NS(C)(=O)=O)cc2C)C1` [Compound 66, N-(2-(6-(((3R,5R)-1-ethyl-5-fluoropiperidin-3-yl)amino)-5-methylpyridazin-3-yl)-5-(trifluoromethyl)phenyl) methanesulfonamide], the EC50 fell in the range of 0.5 to 1 µM.

`Cc1cc(-c2ccc(C(F)(F)F)cc2NC(=O)C(F)F)nnc1N[C@@H]1CCCN(C(C)C)C1` [Compound 120]: the EC50 is less than 0.5 µM.

In the case of `CCN1CCC[C@@H](Nc2cc(C)c(-c3ccc(C(F)(F)F)cc3NS(=O)(=O)CC)nn2)C1` [Compound 63, N-[2-[6-[[(3R)-1-ethyl-3-piperidyl]amino]-4-methyl-pyridazin-3-yl]-5-(trifluoromethyl)phenyl]ethanesulfon-amide], the EC50 is less than 0.5 µM.

`CC(=O)Nc1cc(C(F)(F)F)ccc1-c1nnc(N[C@@H]2CCCN(C(C)C)C2)cc1C` [Compound 136, N-[2-[6-[[(3R)-1-isopropyl-3-piperidyl]amino]-4-methyl-pyridazin-3-yl]-5-(trifluoromethyl)phenyl]acetamide]: the 50% effective concentration (EC50) was in the range of 0.5 to 1 µM.

For `CCN1CCC[C@@H](Nc2nnc(-c3ccc(C(F)(F)F)cc3NS(C)(=O)=O)c3c2C2CCC3CC2)C1` [Compound 30, (R)—N-(2-(4-((1-Ethylpiperidin-3-yl)amino)-5,6,7,8-tetrahydro-5,8-ethanophthalazin-1-yl)-5-(trifluoromethyl)phenyl) methanesulfonamide], the EC50 was less than 0.5 µM.

As to `Cc1cc(-c2ccc(C(F)(F)F)cc2NS(C)(=O)=O)nnc1N[C@@H]1CCCN(C2CCCC2)C1` [Compound 26, (R)—N-(2-(6-((1-Cyclopentylpiperidin-3-yl)amino)-5-methylpyridazin-3-yl)-5-(trifluoromethyl)phenyl) methanesulfonamide], the EC50 was less than 0.5 µM.

With `Cc1cc(N[C@@H]2CCCN(C3CCC3)C2)nnc1-c1ccc(C(F)(F)F)cc1NS(C)(=O)=O` [Compound 34], the EC50 is less than 0.5 µM.

For the compound `Cc1cc(-c2ccc(C(F)(F)F)cc2NS(C)(=O)=O)nnc1N[C@@H]1CCCNC1` [Compound 67, (R)—N-(2-(5-methyl-6-(piperidin-3-ylamino)pyridazin-3-yl)-5-(trifluoromethyl)phenyl) methanesulfonamide], the concentration for a half-maximal effect (EC50) lay in the range of 1 to 5 µM.

For the compound `Cc1cc(N[C@@H]2CCCN(C(C)C)C2)nnc1-c1ccc(C(F)(F)F)cc1NC(C)C` [Compound 111, 6-[2-(isopropylamino)-4-(trifluoromethyl)phenyl]-N-[(3R)-1-isopropyl-3-piperidyl]-5-methyl-pyridazin-3-amine], the EC50 was less than 0.5 µM.

As for `Cc1cc(N[C@@H]2CCCN(CC3CCCCC3)C2)nnc1-c1ccc(C(F)(F)F)cc1NS(C)(=O)=O` [Compound 40, N-[2-[6-[[(3R)-1-(cyclohexylmethyl)-3-piperidyl]amino]-4-methyl-pyridazin-3-yl]-5-(trifluoromethyl)phenyl]methanesulfon-amide], the 50% effective concentration (EC50) was less than 0.5 µM.

For the compound `CCN1CCC[C@@H](Nc2nnc(-c3ccc(C(F)(F)F)cc3N)cc2C)C1` [Compound 131, 6-[2-amino-4-(trifluoromethyl)phenyl]-N-[(3R)-1-ethyl-3-piperidyl]-4-methyl-pyridazin-3-amine], the EC50 is less than 0.5 µM.

In the case of `CCN1CCC[C@@H](Nc2cc(C3CC3)c(-c3ccc(C(F)(F)F)cc3NS(C)(=O)=O)nn2)C1` [Compound 43, (R)—N-(2-(4-Cyclopropyl-6-((1-ethylpiperidin-3-yl)amino)pyridazin-3-yl)-5-(trifluoromethyl)phenyl) methanesulfonamide], the concentration giving a half-maximal response (EC50) was less than 0.5 µM.

`CN1CCC[C@@H](Nc2cc(C(F)(F)F)c(-c3ccc(C(F)(F)F)cc3NS(C)(=O)=O)nn2)C1` [Compound 51, N-[2-[6-[[(3R)-1-methyl-3-piperidyl]amino]-4-(trifluoromethyl)pyridazin-3-yl]-5-(trifluoromethyl)phenyl]methanesulfon-amide]: the EC50 is 1 to 5 µM.

For `COCCN1CCC[C@@H](Nc2cc(C)c(-c3ccc(C(F)(F)F)cc3NS(C)(=O)=O)nn2)C1` [Compound 56, (R)—N-(2-(6-((1-(2-Methoxyethyl)piperidin-3-yl)amino)-4-methylpyridazin-3-yl)-5-(trifluoromethyl)phenyl) methanesulfonamide], the EC50 was in the range of 1 to 5 µM.

Regarding `Cc1cc(N[C@@H]2CCCN(CCO)C2)nnc1-c1ccc(C(F)(F)F)cc1NS(C)(=O)=O` [Compound 6, (R)—N-(2-(6-((1-(2-Hydroxyethyl)piperidin-3-yl)amino)-4-methylpyridazin-3-yl)-5-(trifluoromethyl)phenyl) methanesulfonamide], the concentration for a half-maximal effect (EC50) fell in the range of 0.5 to 1 µM.

In the case of `Cc1cc(N[C@@H]2CCCN(CCO)C2)nnc1-c1ccc(C(F)(F)F)c2cn[nH]c12` [Compound 16, (R)-2-(3-((5-Methyl-6-(4-(trifluoromethyl)-1H-indazol-7-yl)pyridazin-3-yl)amino)piperidin-1-yl) ethan-1-ol], the EC50 fell in the range of 1 to 5 µM.

In the case of `Cc1cc(N[C@@H]2CCCN(C(C)C)C2)nnc1-c1ccc(C(F)(F)F)cc1Nc1ccccc1` [Compound 112, 6-[2-anilino-4-(trifluoromethyl)phenyl]-N-[(3R)-1-isopropyl-3-piperidyl]-5-methyl-pyridazin-3-amine], the EC50 was less than 0.5 µM.

Consider `CN1CCC[C@@H](Nc2nnc(-c3ccc(C(F)(F)F)cc3NS(C)(=O)=O)c3c2CCCC3)C1` [Compound 50, (R)—N-(2-(4-((1-Methylpiperidin-3-yl)amino)-5,6,7,8-tetrahydrophthalazin-1-yl)-5-(trifluoromethyl)phenyl) methane sulfonamide], for which the EC50 was in the range of 1 to 5 µM.

Turning to `CCN1CCC[C@@H](Nc2cc(C)c(-c3ccc(C(F)(F)F)cc3NS(=O)(=O)C3CC3)nn2)C1` [Compound 65, (R)—N-(2-(6-((1-Ethylpiperidin-3-yl)amino)-4-methylpyridazin-3-yl)-5-(trifluoromethyl)phenyl) cyclopropanesulfonamide], the EC50 was less than 0.5 µM.

Turning to `CCNc1cc(C(F)(F)F)ccc1-c1cc(C)c(N[C@@H]2CCCN(C(C)C)C2)nn1` [Compound 114, 6-[2-(ethylamino)-4-(trifluoromethyl)phenyl]-N-[(3R)-1-isopropyl-3-piperidyl]-4-methyl-pyridazin-3-amine], the EC50 is less than 0.5 µM.

`Cc1cc(N[C@@H]2CCCN(C(C)C)C2)nnc1-c1ccc(C(F)(F)F)cc1NC(=O)C(C)C` [Compound 132, (R)—N-(2-(6-((1-Isopropylpiperidin-3-yl)amino)-4-methylpyridazin-3-yl)-5-(trifluoromethyl)phenyl) isobutyramide]: the concentration giving a half-maximal response (EC50) was less than 0.5 µM.

Turning to `Cc1cc(-c2ccc(C(F)(F)F)c3cn[nH]c23)nnc1N[C@@H]1CCCN(CCO)C1` [Compound 19, 2-[(3R)-3-[[4-methyl-6-[4-(trifluoromethyl)-1H-indazol-7-yl]pyridazin-3-yl]amino]-1-piperidyl]ethanol], the EC50 is more than 30 µM.
